Tested on: mouse acetate acid writhing model
Experiment: Mouse acetate acid writhing model
Format: in vivo, C57BL/6 mice
Details: Diclofenac Sodium Group, 30 mg/kg i.p. once daily for 7 days; 8 mice
Source text: Seventy SPF-grade healthy C57BL/6 mice, half male and half female, weighing 22-25 g and 8-10 weeks old, are randomly selected. Seventy C57BL/6 mice are weighed and numbered in ascending order of body weight (No. S1-S70). The mice are randomly divided into seven groups in terms of the randomized numerical table method, which are the saline group and the experimental groups, among which the experimental groups include the PPN-01 group, the PPN-04 group, the PPN-06 group, the PPN-11 group, the PPN-12 group, and the PPN-16 group. The dosing concentration (i.e., the concentration of added polypeptides PPN-01, PPN-04, PPN-06, PPN-11, PPN-12, and PPN-16) in each group is 10 mg/kg, with 10 mice in each group.
(§1) Saline Group: 10 healthy mice are routinely reared for one week; the saline is intraperitoneally injected once daily at a concentration of 10 ml/kg for 7 consecutive days; 15 min after the last injection is finished, 0.7% glacial acetic acid (10 ml/kg) is intraperitoneally injected; and each mouse is observed for their writhing behaviors.
Experimental Group: 10 healthy mice are routinely reared for one week; 10 ml/kg of different polypeptides are injected intraperitoneally at a concentration of 0.1 mL/10 g once daily for 7 consecutive days; 15 min after the last injection is finished, 0.7% glacial acetic acid (10 ml/kg) is intraperitoneally injected; and each mouse is observed for their behaviors in writhing.
During the above experiments, the time of first writhing (writhing latency) and the number of writhing in each mouse within 15 min are recorded immediately after the injection of glacial acetic acid solution in each group of mice. When behavioral responses such as inward concavity of the abdomen, extension of the torso and hind limbs, and elevation of the buttocks occur, it is considered to be a complete writhing response, and the results are shown in Table 3 and FIG. 6.
Forty SPF-grade healthy C57BL/6 mice, half male and half female, weighing 22-25 g and 8-10 weeks old, are randomly selected. Forty C57BL/6 mice are weighed and numbered in ascending order of body weight (No. 1 to No. 40). The mice are randomly divided into five groups according to the randomized numerical table method, namely, the saline group, the low-concentration group (2.5 mg/kg), the medium-concentration group (10 mg/kg), the high-concentration group (40 mg/kg), and the diclofenac sodium group (30 mg/kg), with eight mice in each group.
as §1, with “Group: 8” for “Group: 10”, “their behaviors in writhing. […]” for “their writhing behaviors.”

O=C(O)Cc1ccccc1Nc1c(Cl)cccc1Cl [Diclofenac Sodium, diclofenac sodium, reference compound]
Inhibiting Rate (writhing): 77.6%
